Assay results published in the CheMixHub viscosity set.

Assay: xn = mol fraction of the nth substance listed

CC(C)=O + O
101 kPa
Conditions	viscosity [mPa·s]
293.15 K, x1 = 0.047	1.328
293.15 K, x1 = 0.095	1.549
293.15 K, x1 = 0.124	1.586
293.15 K, x1 = 0.152	1.588
293.15 K, x1 = 0.192	1.504
293.15 K, x1 = 0.328	1.129
293.15 K, x1 = 0.49	0.746
293.15 K, x1 = 0.687	0.497
293.15 K, x1 = 0.85	0.404
298.15 K, x1 = 0.0201	1.047
298.15 K, x1 = 0.2	1.343
298.15 K, x1 = 0.4	0.88
298.15 K, x1 = 0.6	0.543
298.15 K, x1 = 0.8	0.372
303.15 K, x1 = 0.047	1.027
303.15 K, x1 = 0.095	1.179
303.15 K, x1 = 0.124	1.214
303.15 K, x1 = 0.152	1.212
303.15 K, x1 = 0.192	1.148
303.15 K, x1 = 0.328	0.901
303.15 K, x1 = 0.49	0.625
303.15 K, x1 = 0.687	0.435
303.15 K, x1 = 0.85	0.367
308.15 K, x1 = 0.0499	0.9532
308.15 K, x1 = 0.0702	1.015
308.15 K, x1 = 0.1	1.064
308.15 K, x1 = 0.12	1.08
308.15 K, x1 = 0.1499	1.084
308.15 K, x1 = 0.1701	1.069
308.15 K, x1 = 0.1999	1.039
308.15 K, x1 = 0.22	1.012
308.15 K, x1 = 0.2499	0.9681
308.15 K, x1 = 0.2701	0.9345
308.15 K, x1 = 0.3001	0.8823
308.15 K, x1 = 0.3499	0.7933
308.15 K, x1 = 0.4	0.7101
308.15 K, x1 = 0.4502	0.6353
308.15 K, x1 = 0.5001	0.5698
308.15 K, x1 = 0.6	0.4627
308.15 K, x1 = 0.7	0.3849
308.15 K, x1 = 0.7999	0.3262
308.15 K, x1 = 0.9	0.2729
313.15 K, x1 = 0.0201	0.7526
313.15 K, x1 = 0.047	0.826
313.15 K, x1 = 0.0499	0.8529
313.15 K, x1 = 0.0702	0.9032
313.15 K, x1 = 0.095	0.929
313.15 K, x1 = 0.1	0.9489
313.15 K, x1 = 0.12	0.961
313.15 K, x1 = 0.124	0.945
313.15 K, x1 = 0.1499	0.9659
313.15 K, x1 = 0.152	0.955
313.15 K, x1 = 0.1701	0.9492
313.15 K, x1 = 0.192	0.908
313.15 K, x1 = 0.1999	0.9232
313.15 K, x1 = 0.22	0.9029
313.15 K, x1 = 0.2499	0.8658
313.15 K, x1 = 0.2701	0.8358
313.15 K, x1 = 0.3001	0.792
313.15 K, x1 = 0.328	0.737
313.15 K, x1 = 0.3499	0.7155
313.15 K, x1 = 0.4	0.6429
313.15 K, x1 = 0.4502	0.5785
313.15 K, x1 = 0.49	0.536
313.15 K, x1 = 0.5001	0.5234
313.15 K, x1 = 0.6	0.4276
313.15 K, x1 = 0.687	0.386
313.15 K, x1 = 0.7	0.361
313.15 K, x1 = 0.7999	0.302
313.15 K, x1 = 0.85	0.333
313.15 K, x1 = 0.9	0.2597
318.15 K, x1 = 0.0201	0.6793
318.15 K, x1 = 0.0499	0.7678
318.15 K, x1 = 0.0702	0.8166
318.15 K, x1 = 0.1	0.8463
318.15 K, x1 = 0.12	0.8495
318.15 K, x1 = 0.1499	0.8555
318.15 K, x1 = 0.1701	0.8465
318.15 K, x1 = 0.1999	0.8249
318.15 K, x1 = 0.22	0.8044
318.15 K, x1 = 0.2499	0.7773
318.15 K, x1 = 0.2701	0.7529
318.15 K, x1 = 0.3001	0.7134
318.15 K, x1 = 0.3499	0.6478
318.15 K, x1 = 0.4	0.5851
318.15 K, x1 = 0.4502	0.5251
318.15 K, x1 = 0.5001	0.476
318.15 K, x1 = 0.6	0.3869
318.15 K, x1 = 0.7	0.3317
318.15 K, x1 = 0.7999	0.2774
318.15 K, x1 = 0.9	0.2431
323.15 K, x1 = 0.047	0.746
323.15 K, x1 = 0.095	0.834
323.15 K, x1 = 0.124	0.853
323.15 K, x1 = 0.152	0.859
323.15 K, x1 = 0.192	0.808
323.15 K, x1 = 0.328	0.682
323.15 K, x1 = 0.49	0.499
323.15 K, x1 = 0.687	0.367
323.15 K, x1 = 0.85	0.32

CC(C)=O + c1ccccc1
Conditions	viscosity [mPa·s]
293.15 K, 101 kPa, x1 = 0.086	0.598
293.15 K, 101 kPa, x1 = 0.1	0.592
293.15 K, 101 kPa, x1 = 0.1304	0.581
293.15 K, 101 kPa, x1 = 0.248	0.535
293.15 K, 101 kPa, x1 = 0.269	0.528
293.15 K, 101 kPa, x1 = 0.287	0.513
293.15 K, 101 kPa, x1 = 0.4005	0.47
293.15 K, 101 kPa, x1 = 0.408	0.471
293.15 K, 101 kPa, x1 = 0.5661	0.416
293.15 K, 101 kPa, x1 = 0.587	0.414
293.15 K, 101 kPa, x1 = 0.6783	0.385
293.15 K, 101 kPa, x1 = 0.767	0.376
293.15 K, 101 kPa, x1 = 0.7899	0.357
293.15 K, 101 kPa, x1 = 0.864	0.362
293.15 K, 101 kPa, x1 = 0.9053	0.332
293.16 K, 101 kPa, x1 = 0.1304	0.581
293.16 K, 101 kPa, x1 = 0.287	0.513
293.16 K, 101 kPa, x1 = 0.4005	0.47
293.16 K, 101 kPa, x1 = 0.5661	0.416
293.16 K, 101 kPa, x1 = 0.6783	0.385
293.16 K, 101 kPa, x1 = 0.7899	0.357
293.16 K, 101 kPa, x1 = 0.9053	0.332
298.15 K, 101 kPa, x1 = 0.092	0.5569
298.15 K, 101 kPa, x1 = 0.1304	0.534
298.15 K, 101 kPa, x1 = 0.1895	0.5185
298.15 K, 101 kPa, x1 = 0.2364	0.4968
298.15 K, 101 kPa, x1 = 0.287	0.484
298.15 K, 101 kPa, x1 = 0.2986	0.4766
298.15 K, 101 kPa, x1 = 0.3321	0.4654
298.15 K, 101 kPa, x1 = 0.4005	0.446
298.15 K, 101 kPa, x1 = 0.4076	0.4368
298.15 K, 101 kPa, x1 = 0.4692	0.4188
298.15 K, 101 kPa, x1 = 0.49	0.4158
298.15 K, 101 kPa, x1 = 0.5552	0.3985
298.15 K, 101 kPa, x1 = 0.5608	0.3975
298.15 K, 101 kPa, x1 = 0.5661	0.401
298.15 K, 101 kPa, x1 = 0.6629	0.3692
298.15 K, 101 kPa, x1 = 0.6783	0.375
298.15 K, 101 kPa, x1 = 0.7262	0.3546
298.15 K, 101 kPa, x1 = 0.7691	0.3451
298.15 K, 101 kPa, x1 = 0.7899	0.351
298.15 K, 101 kPa, x1 = 0.808	0.3384
298.15 K, 101 kPa, x1 = 0.8946	0.3203
298.15 K, 101 kPa, x1 = 0.9053	0.33
298.16 K, 101 kPa, x1 = 0.1304	0.534
298.16 K, 101 kPa, x1 = 0.287	0.484
298.16 K, 101 kPa, x1 = 0.4005	0.446
298.16 K, 101 kPa, x1 = 0.5661	0.401
298.16 K, 101 kPa, x1 = 0.6783	0.375
298.16 K, 101 kPa, x1 = 0.7899	0.351
298.16 K, 101 kPa, x1 = 0.9053	0.33
303.15 K, 101 kPa, x1 = 0.086	0.523
303.15 K, 101 kPa, x1 = 0.1	0.518
303.15 K, 101 kPa, x1 = 0.248	0.475
303.15 K, 101 kPa, x1 = 0.269	0.469
303.15 K, 101 kPa, x1 = 0.2875	0.456
303.15 K, 101 kPa, x1 = 0.408	0.423
303.15 K, 101 kPa, x1 = 0.4185	0.417
303.15 K, 101 kPa, x1 = 0.5098	0.392
303.15 K, 101 kPa, x1 = 0.5498	0.382
303.15 K, 101 kPa, x1 = 0.587	0.375
303.15 K, 101 kPa, x1 = 0.6652	0.356
303.15 K, 101 kPa, x1 = 0.767	0.346
303.15 K, 101 kPa, x1 = 0.7851	0.331
303.15 K, 101 kPa, x1 = 0.864	0.332
303.15 K, 101 kPa, x1 = 0.8895	0.312
303.16 K, 101 kPa, x1 = 0.2875	0.456
303.16 K, 101 kPa, x1 = 0.4185	0.417
303.16 K, 101 kPa, x1 = 0.5098	0.392
303.16 K, 101 kPa, x1 = 0.5498	0.382
303.16 K, 101 kPa, x1 = 0.6652	0.356
303.16 K, 101 kPa, x1 = 0.7851	0.331
303.16 K, 101 kPa, x1 = 0.8895	0.312
307.35 K, 101.33 kPa, x1 = 0.1115	0.492
307.35 K, 101.33 kPa, x1 = 0.3573	0.419
307.35 K, 101.33 kPa, x1 = 0.4938	0.382
307.35 K, 101.33 kPa, x1 = 0.5562	0.374
307.35 K, 101.33 kPa, x1 = 0.6464	0.352
307.35 K, 101.33 kPa, x1 = 0.8853	0.308
313.15 K, 101 kPa, x1 = 0.086	0.464
313.15 K, 101 kPa, x1 = 0.1	0.46
313.15 K, 101 kPa, x1 = 0.248	0.424
313.15 K, 101 kPa, x1 = 0.269	0.419
313.15 K, 101 kPa, x1 = 0.408	0.378
313.15 K, 101 kPa, x1 = 0.587	0.344
313.15 K, 101 kPa, x1 = 0.767	0.32
313.15 K, 101 kPa, x1 = 0.864	0.309
323.15 K, 101 kPa, x1 = 0.086	0.436
323.15 K, 101 kPa, x1 = 0.1	0.436
323.15 K, 101 kPa, x1 = 0.248	0.404
323.15 K, 101 kPa, x1 = 0.269	0.4
323.15 K, 101 kPa, x1 = 0.408	0.361
323.15 K, 101 kPa, x1 = 0.587	0.33
323.15 K, 101 kPa, x1 = 0.767	0.309
